For two compounds, inhibition and Compound recovery results are on record in ChEMBL document CHEMBL3508693 (2016).

Bounds are passed on as bounds.

Data set [1] addresses T1, CYP2C19 (Homo sapiens, UniProt P33261). Put plainly: in vitro. Conditions: probe (S)-mephenytoin (50 uM).
Description: Inhibitory activity of 100 uM tranylcypromine on 49 Pmoles of cDNA-derived CYP2C19 enzyme in microsome prepared from human lymphoblastoid cell line
The target in data set [2] is T1, CYP2C19. In words: in vitro. Conditions: probe (S)-mephenytoin (50 uM). The source holds these as a separate data set.
Description: Inhibitory activity of 100 uM tranylcypromine on 34 Pmoles of cDNA-derived CYP2C19 enzyme in microsome prepared from human lymphoblastoid cell line
The target of data set [3] is T2, CYP2A6 (Homo sapiens, UniProt P11509).
T2 sequence (P11509 whole entry): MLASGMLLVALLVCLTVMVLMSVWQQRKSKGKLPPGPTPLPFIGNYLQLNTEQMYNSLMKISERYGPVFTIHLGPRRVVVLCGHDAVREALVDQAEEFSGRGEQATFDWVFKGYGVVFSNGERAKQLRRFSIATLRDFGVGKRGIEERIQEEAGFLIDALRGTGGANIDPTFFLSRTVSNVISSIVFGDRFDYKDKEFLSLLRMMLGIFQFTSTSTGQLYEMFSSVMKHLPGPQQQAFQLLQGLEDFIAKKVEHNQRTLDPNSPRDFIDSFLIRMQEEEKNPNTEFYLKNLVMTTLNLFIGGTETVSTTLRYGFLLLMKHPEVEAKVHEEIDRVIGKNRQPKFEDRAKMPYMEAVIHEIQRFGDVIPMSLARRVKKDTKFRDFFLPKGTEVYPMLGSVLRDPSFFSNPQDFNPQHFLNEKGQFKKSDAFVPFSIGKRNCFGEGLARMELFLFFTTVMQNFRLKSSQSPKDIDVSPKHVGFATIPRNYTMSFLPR
In words: in vitro. The conditions noted are these: probe coumarine.

For data set [4], the target named is T2, CYP2A6. In words: in vitro. The conditions noted are these: probe coumarine. This is another data set of the same source.
Data set [5] has as its target T2, CYP2A6. Put plainly: in vitro. Conditions: probe coumarine. The source holds these as a separate data set.
Data set [6] is described as follows: % of radioactivity recovered as M5 from M1 in urine following oral administration of [14C] aliskiren hemifumarate at 100 mg.Kg-1 level in rat. The class given is ADME, organism-based, Albino HAN:WIST. The conditions noted are these: in vivo.
The nature of data set [7]: % of radioactivity recovered as M5 from M1 in urine following intravenous administration of [14C] aliskiren hemifumarate at 10 mg.Kg-1 level in rat. The class given is ADME, organism-based, Albino HAN:WIST. Conditions: in vivo.
Data set [8] is described as follows: % of radioactivity recovered as M5 from M1 in plasma following intravenous administration of [14C] aliskiren hemifumarate at 10 mg.Kg-1 level in rat. The conditions noted are these: in vivo. Format: ADME, organism-based, Albino HAN:WIST.
Data set [9] can be described thus: % of radioactivity recovered as M5 from M1 in faeces following oral administration of [14C] aliskiren hemifumarate at 100 mg.Kg-1 level in rat. Format: ADME, organism-based, Albino HAN:WIST, Feces. Conditions: in vivo.
Data set [10] can be described thus: % aliskiren recovered as M5 from M1 of receiver rat following duodenal infusion of radioactivity through bile from donor rat treated with single intravenous administration of 10 mg.Kg-1 [14C] aliskiren hemifumarate. Format: ADME, organism-based, HAN:WIST(SPF). The conditions noted are these: in vivo.
Data set [11] in a line: % aliskiren recovered as M5 from M1 in hydrolysed following single intravenous administration of 10 mg.Kg-1 [14C] aliskiren hemifumarate in male rat. The conditions noted are these: in vivo. Format: ADME, organism-based, HAN:WIST(SPF), Bile.
Data set [12] can be described thus: % of radioactivity recovered as M5 from M1 in plasma following oral administration of [14C] aliskiren hemifumarate at 100 mg.Kg-1 level in rat. Format: ADME, organism-based, Albino HAN:WIST. The conditions noted are these: in vivo.
The nature of data set [13]: % aliskiren recovered as M5 from M1 in bile following single intravenous administration of 10 mg.Kg-1 [14C] aliskiren hemifumarate in male rat. Conditions: in vivo. Format: ADME, organism-based, HAN:WIST(SPF).
Data set [14] is described as follows: % aliskiren recovered as M5 from M1 in urine following single intravenous administration of 10 mg.Kg-1 [14C] aliskiren hemifumarate in male rat. Format: ADME, organism-based, HAN:WIST(SPF). The conditions noted are these: in vivo.
Data set [15] can be described thus: % of radioactivity recovered as M5 from M1 in faeces following intravenous administration of [14C] aliskiren hemifumarate at 10 mg.Kg-1 level in rat. The class given is ADME, organism-based, Albino HAN:WIST, Feces. Conditions: in vivo.

T1 sequence (P33261 whole entry): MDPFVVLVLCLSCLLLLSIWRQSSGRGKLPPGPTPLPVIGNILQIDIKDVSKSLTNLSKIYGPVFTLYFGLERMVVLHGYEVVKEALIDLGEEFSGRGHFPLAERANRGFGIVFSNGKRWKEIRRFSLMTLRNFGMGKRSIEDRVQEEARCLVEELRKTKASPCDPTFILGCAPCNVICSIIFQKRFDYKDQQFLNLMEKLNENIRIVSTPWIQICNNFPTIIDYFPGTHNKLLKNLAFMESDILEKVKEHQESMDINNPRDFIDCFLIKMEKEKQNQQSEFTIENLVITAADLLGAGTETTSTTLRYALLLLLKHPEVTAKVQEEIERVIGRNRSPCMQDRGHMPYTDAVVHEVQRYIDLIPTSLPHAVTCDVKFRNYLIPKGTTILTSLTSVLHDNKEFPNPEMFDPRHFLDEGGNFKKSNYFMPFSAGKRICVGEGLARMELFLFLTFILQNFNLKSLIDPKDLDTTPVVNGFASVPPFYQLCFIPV

For `N[C@@H]1C[C@H]1c1ccccc1.N[C@H]1C[C@@H]1c1ccccc1` [TRANYLCYPROMINE], the inhibition (as a rule, the share of the control response that was lost under treatment) at 100 µM against CYP2C19 [1] was 96%; against CYP2C19 [2] it was 97%; against CYP2A6 [3] it was 99%; on CYP2A6 [4], 97%; against CYP2A6 [5], 98%.
On to `COCCCOc1cc(C[C@@H](C[C@H](N)[C@@H](O)C[C@H](C(=O)NCC(C)(C)C(N)=O)C(C)C)C(C)C)ccc1O[C@@H]1O[C@H](CO)[C@@H](O)[C@H](O)[C@H]1O`, for which the Compound recovery entry in data set [6] is “<= 2%”; in [7], “OUTCOME = Not detected or not investigated”; in data set [8], “<= 2%”; in data set [9], “OUTCOME = Not detected or not investigated”; in [10], 8.9%; in data set [11] it was “OUTCOME = Not detected”. Moreover, the Compound recovery was greater than 2% in data set [12], 5% in data set [13], 3.2% in data set [14] and “OUTCOME = Not detected or not investigated” in data set [15].
